The results in this text go back to US9771430B2, “Method of treating a metabolic disorder induced by obesity in a subject in need thereof by administering MK2/3 inhibitors” (THE TRUSTEES OF COLUMBIA UNIVERSITY IN THE CITY OF NEW YORK, priority 2011, dated 2017).

The test system of one experiment is G6pc and Pck1 mRNA. The experiment can be described thus: G6pc and Pck1 mRNA (RT-qPCR) in primary mouse hepatocytes. The following applies: glucagon / forskolin. It is filed as cell-based. As for the experimental part: FIG. 32A-E. Related to FIG. 26—p38. FIG. 32A Mice were fed ad libitum or fasted for 12 h. Liver phospho-p38, total p38, p-MK2, total MK-2, and β-actin were assayed by immunoblot. FIG. 32B WT HCs were serum-depleted overnight and then incubated for 5 h with 100 nm glucagon in serum-free media with or without SB202190; or glucagon was added to HCs from P38a^fl/fl mice treated with adeno-LacZ (control) or adeno-Cre. RNA was assayed for G6pc and Pck1 mRNA (*P<0.05; mean±S.E.M.). FIG. 32C HCs from fasting WT and Camk2g^−/− mice were assayed for p-p38, total p38, and β-actin. FIG. 32D WT mice were injected i.p. with 12.5 mg kg^−1 body weight of p38 inhibitor (SB202190) or vehicle control. 12 h later, the mice were injected with an additional dose of SB202190 and fasted overnight. The livers were assayed for nuclear FoxO1, nucleophosmin, p-MK2, total MK-2, and β-actin. The correlation between nuclear FoxO1 and p-MK2 band intensities is shown in the graph. FIG. 32E Adeno-GFP-FoxO1-transduced HCs were serum-depleted overnight, and then incubated for 5 h in serum-free media with SB202190 or vehicle (Veh) control. FoxO1 localization was assessed by indirect immunofluorescence (Bar, 10 μm; *P<0.05; mean±S.E.M.).
FIGS. 53A-B. MK-2 regulates hepatic FoxO1 subcellular localization and hepatic G6Pc and Pck1. FIG. 53A. Adeno-GFP-FoxO1-transduced HCs were serum-depleted overnight, and then incubated for 30 min in serum-free media with 2 uM MK-2 inhibitor or vehicle (Veh) control. FoxO1 localization was assessed by indirect immunofluorescence (Bar, […]; *P<0.005; mean±S.E.M.). FIG. 53B WT HCs were serum-depleted overnight and then incubated for 5 h with 100 nm glucagon in serum-free media with or without MK-2 inhibitor. RNA was assayed for G6pc and Pck1 mRNA (*P<0.005; mean±S.E.M.). MK-2 Inhibitor is from Calbiochem (cat#475864): 2-(2-Quinolin-3-ylpyridin-4-yl)-1,5,6,7-tetrahydro-4H-pyrrolo-[3,2-c]pyridin-4-one.
FIG. 69. MK-2 inhibitor suppresses forskolin-induced Pck1 and G6Pc induction in primary hepatocytes. Primary hepatocytes from WT mice were serum-depleted overnight and then pre-treated with 300 nM MK-2 inhibitor (compound 28) or vehicle for 1 h. Cells were then treated with 2 μM forskolin in serum-free media with or without the inhibitor for 4 h. RNA was assayed for G6pc and Pck1 mRNA by RT-qPCR. *, P<0.0001.
Primary mouse HCs were isolated from 8- to 12-week-old mice as described previously (Matsumoto et al., 2002). For most experiments, the HCs were serum-depleted overnight by incubation in medium containing 0.5% fetal calf serum and were then incubated for 5 h in serum-free media, with individual treatments noted in the figure legends. HCs were transduced with adenoviral constructs 12 h after plating, and experiments were conducted 24 h after transduction. Transfections with WT, 7A- and 9A-Foxo1 were carried out using jetPEI™-hepatocyte DNA transfection reagent (Polyplus-transfection, Inc.) according to manufacturer's instructions.
Immunoblot and RT-qPCR assays were performed as previously described (Timmins et al., 2009). Total RNA was extracted from HCs using the RNeasy kit (Qiagen). cDNA was synthesized from 2 μg total RNA using oligo (dT) and Superscript II (Invitrogen). Nuclear extraction from liver was performed using the Nuclear Extraction Kit from Panomics according to the manufacturer's instructions. […] Whether their origin is alternative splicing or post-translational modification remains to be determined.

A further experiment has as its system CRTC2. The experiment in a line: CRTC2 dephosphorylation and nuclear translocation in primary hepatocytes. It is filed as cell-based, mouse. The following applies: inhibitor pre-treatment 1 h, glucagon 100 nM. Here is the method: HEK293T (ATCC) cells were cultured in DMEM containing 10% FBS (HyClone), […] penicillin-streptomycin. Mouse primary hepatocytes were isolated and cultured as previously described (18). Cellular fractionation studies were conducted as previously reported (18). For reporter studies, Ad-CRE-luc infected hepatocytes (1 pfu per cell) were exposed to glucagon (Gcg, 100 nM) for 2˜4 h. For cyclosporine A (CsA, 10 μM) or okadaic acid (OA, 100 nM) or cell permeable calcineurin autoinhibitory peptide (10 μM) or CN585 (100 μM) or Calyculin A (10 nM) or Xestospongin C (Xc, 2 μM) or H89 (30 μM) or BAPTA (50 μM) inhibition, hepatocytes were pre-treated with the inhibitors for one hour. Luciferase activities were normalized to β-galactosidase activity from adenoviral-encoded RSV β-gal. Calcineurin activity (test kit from Enzo Life Sciences) and cellular cAMP levels (test kit from Cayman Chemical Company) were measured according to manufacturer's instructions.
Immunoblot, immunoprecipitation, and immunostaining assays were performed as described (18). CRTC2, pCREB (Ser133), CREB, pAKT (Thr308), AKT, tubulin, HA, and FLAG antibodies were previously described (18). The antibodies anti-InsP3R1 (A302-158A) and InsP3R3 (A302-160A) were purchased from Bethyl Laboratories, anti-InsP3R2 (ab77838) from Abcam, anti-Calcineurin (610260) from BD Biosciences, anti-GRP78 (ADI-SPA-826-F) from Enzo Life Sciences, anti-phospho-PKA substrate (RRXS/T, 9624), anti-phospho-AKT substrate (RXXS/T, 9614) and CRTC2 (pS171, 2892) from Cell Signaling. CRTC2 (pS275) antibody was employed as described (19).

`C1CCC[C@H]2CCCN3CC[C@@H](CCCCCC[C@@H]4CCCN5CC[C@@H](CC1)O[C@@H]45)O[C@@H]23` [Xestospongin C]: the “induction of the gluconeogenic program” value with G6pc and Pck1 mRNA is “blocked”. In the experiment on CRTC2, the “glucagon-induced dephosphorylation (and nuclear translocation) of CRTC2” value is listed as “blocked”.
